# Experiments:
# QsdR = target: T1, QsdR (Rhodococcus erythropolis, UniProt A0A0C2W9F0); assay: EMSA with biotinylated qsdR-qsdA intergenic DNA, release of DNA; format: binding; settings: ligand/QsdR molecular ratio 0.1 to 100, 3 μg QsdR, 0.4 ng DNA, room temperature
# T1 construct: gene I3517_23075; qsdR ORF (563 bp NdeI-BamHI fragment) in pET19, His-tagged, E. coli BL21DE3, Ni-NTA; about 20 kDa; dimer
# T1 sequence (A0A0C2W9F0 1-186): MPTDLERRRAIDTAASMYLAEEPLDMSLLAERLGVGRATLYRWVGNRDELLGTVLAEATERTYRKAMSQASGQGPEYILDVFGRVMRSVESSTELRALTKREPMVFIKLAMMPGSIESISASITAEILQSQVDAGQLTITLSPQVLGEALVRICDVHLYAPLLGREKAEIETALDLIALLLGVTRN
# [1] = target: T2, QsdR (His-tagged) (Rhodococcus erythropolis R138?) (UniProt A0A0C2W9F0); assay: EMSA; settings: LightShift Chemiluminescent EMSA Kit buffer (composition, salt, pH not stated); QsdR in Qiagen elution buffer with 50% glycerol; 20 min at room temperature …
# T2 sequence: T1 sequence (A0A0C2W9F0 1-186)
compound,measurement,setting,value
"N[C@H]1CCOC1=O [HSL, homoserine lactone]","EMSA with biotinylated qsdR-qsdA intergenic DNA, release of DNA","QsdR; HSL in 10 mM Tris pH 7, positive control",inhibition of the DNA-binding activity of QsdR was also observed in the presence of HSL
GGTAGGCATCGGGACATTCTCTCCGGTTGTCCGGTACTGCACAATTTCGGCGGTCGAACAGAGGTGGGCTTCGGGTGGCTCGAGCCTATTGACGAACCAAGCGACGTGAGACACACTAGCTCATTGTCTCATGTTAGTGATGGCGATCACAGTCAGGGGTTCGATCGATGAG (double strand) [qsdR-qsdA intergenic DNA fragment],binding,[1],binds
"CCC1CCC(=O)O1 (stereo not drawn) [GCL, γ-caprolactone]","EMSA with biotinylated qsdR-qsdA intergenic DNA, release of DNA",QsdR; GCL in methanol-water 20:80,The addition of increasing amounts of GCL led to a proportional increase in the amount

# From PMC6476934, “A Flavor Lactone Mimicking AHL Quorum-Sensing Signals Exploits the Broad Affinity of the QsdR Regulator to Stimulate Transcription of the Rhodococcal qsd Operon Involved in Quorum-Quenching and Biocontrol Activities” (Frontiers in Microbiology, 2019)
